As a reminder, the IC50 is the concentration that inhibits the measured activity by half.

Our source for the IC50 values is patent US20230293519A1, “INTEGRIN INHIBITORS AND USES THEREOF IN COMBINATION WITH OTHER AGENTS” (Pliant Therapeutics, Inc., priority 2021, published 2023).

Chain of recombinant human integrin αvβ6 (P06756 31-889): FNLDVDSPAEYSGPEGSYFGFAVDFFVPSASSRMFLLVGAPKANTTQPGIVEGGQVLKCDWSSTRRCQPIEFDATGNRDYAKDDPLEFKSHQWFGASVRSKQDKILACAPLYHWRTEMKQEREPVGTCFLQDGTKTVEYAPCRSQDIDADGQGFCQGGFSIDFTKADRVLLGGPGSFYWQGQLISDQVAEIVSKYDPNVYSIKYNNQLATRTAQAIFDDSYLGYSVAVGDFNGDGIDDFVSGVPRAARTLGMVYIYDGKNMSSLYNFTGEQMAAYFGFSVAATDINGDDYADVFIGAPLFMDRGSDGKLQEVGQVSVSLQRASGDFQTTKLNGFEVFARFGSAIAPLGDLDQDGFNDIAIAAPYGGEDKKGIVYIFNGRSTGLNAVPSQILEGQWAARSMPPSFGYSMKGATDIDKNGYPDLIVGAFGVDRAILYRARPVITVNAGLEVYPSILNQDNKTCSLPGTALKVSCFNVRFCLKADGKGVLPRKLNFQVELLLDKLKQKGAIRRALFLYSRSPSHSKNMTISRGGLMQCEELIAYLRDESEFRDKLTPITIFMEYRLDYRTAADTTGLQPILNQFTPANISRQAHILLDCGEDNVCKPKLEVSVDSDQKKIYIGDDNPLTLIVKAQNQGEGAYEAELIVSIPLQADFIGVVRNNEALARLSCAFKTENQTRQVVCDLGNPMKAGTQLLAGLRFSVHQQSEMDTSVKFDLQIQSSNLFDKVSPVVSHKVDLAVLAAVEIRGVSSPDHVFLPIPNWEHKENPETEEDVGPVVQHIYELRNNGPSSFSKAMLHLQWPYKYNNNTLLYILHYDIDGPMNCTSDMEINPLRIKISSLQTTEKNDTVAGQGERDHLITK
Chain of recombinant human integrin αvβ6 (P06756 890-992 partner): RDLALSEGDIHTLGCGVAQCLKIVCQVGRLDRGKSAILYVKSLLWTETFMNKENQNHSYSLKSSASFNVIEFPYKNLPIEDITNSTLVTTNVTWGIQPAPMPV
Chain of recombinant human integrin αvβ6 (P18564 22-707): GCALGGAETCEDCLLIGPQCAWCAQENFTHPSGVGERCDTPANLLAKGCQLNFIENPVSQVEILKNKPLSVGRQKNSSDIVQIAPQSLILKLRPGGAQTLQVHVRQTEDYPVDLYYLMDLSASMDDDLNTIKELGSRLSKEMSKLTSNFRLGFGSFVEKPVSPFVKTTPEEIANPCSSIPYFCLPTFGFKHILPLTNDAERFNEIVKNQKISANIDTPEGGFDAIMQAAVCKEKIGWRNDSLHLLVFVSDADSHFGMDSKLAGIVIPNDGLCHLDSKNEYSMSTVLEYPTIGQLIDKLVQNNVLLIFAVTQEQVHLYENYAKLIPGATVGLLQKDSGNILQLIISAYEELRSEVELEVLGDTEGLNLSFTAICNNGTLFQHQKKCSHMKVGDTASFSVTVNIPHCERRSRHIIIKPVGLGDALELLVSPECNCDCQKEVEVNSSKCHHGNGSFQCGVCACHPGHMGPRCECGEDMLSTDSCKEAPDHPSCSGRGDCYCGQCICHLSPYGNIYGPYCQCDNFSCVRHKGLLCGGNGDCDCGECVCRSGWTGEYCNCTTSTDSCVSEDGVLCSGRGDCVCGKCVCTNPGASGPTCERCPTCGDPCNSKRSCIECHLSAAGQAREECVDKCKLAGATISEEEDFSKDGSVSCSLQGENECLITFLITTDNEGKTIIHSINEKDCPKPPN

The assay concerns the target recombinant human integrin αvβ6 (Homo sapiens (Human), UniProt P06756+P18564). Briefly: Solid phase integrin αvβ6 binding assay. As to conditions: IC50 presented in four ranges; read-out: αvβ6 Inhibition IC50 (nM) - range. How it is done: (§1) Microplates were coated with recombinant human integrin αvβ6 (2 µg/mL) in PBS (100 µL/well 25° C., overnight). The coating solution was removed, washed with wash buffer (0.05% Tween 20; 0.5 mM MnCl2; in 1x TBS). The plate was blocked with 200 µL/well of Block Buffer (1% BSA; 5% sucrose; 0.5 mM MnCl2; in 1x TBS) at 37° C. for 2 h. Dilutions of testing compounds and recombinant TGFβ1 LAP (0.67 µg/mL) in binding buffer (0.05% BSA; 2.5% sucrose; 0.5 mM MnCl2; in 1x TBS) were added. The plate was incubated for 2 hours at 25° C., washed, and incubated for 1 hour with Biotin-Anti-hLAP. Bound antibody was detected by peroxidase-conjugated streptavidin. The IC50 values for testing compounds were calculated by a four-parameter logistic regression.
The compounds tested were compound samples prepared according to procedures described in the Synthetic Examples section, with the stereochemical purity as indicated in the Examples.
as §1, with “A third series of exemplary compounds was selected for testing in the solid phase integrin αvβ6 binding assay. The compounds tested were compound samples prepared according to procedures described in the Synthetic Examples section, with the stereochemical purity as indicated in the Examples. As in Example B1, microplates” for “Microplates”
`O=C(O)[C@H](CCN(CCCCc1ccc2c(n1)NCCC2)C1CC1)Nc1ncnc2ccccc12` [compound 6]: the IC50 was in the range of 50 to 250 nM.
Turning to `COCCN(CCCCc1ccc2c(n1)NCCC2)CC[C@H](Nc1ncnc2cc(F)ccc12)C(=O)O` [compound 7], the IC50 was less than 50 nM.
Take `O=C(O)[C@H](CCN(CCCCc1ccc2c(n1)NCCC2)CC(F)F)Nc1ncnc2ccccc12` [compound 8]: the IC50 is 50 to 250 nM.
Then `O=C(O)[C@H](CCN(CCCCc1ccc2c(n1)NCCC2)C1CC(F)(F)C1)Nc1ncnc2ccccc12` [compound 9], with greater than 1000 nM.
Then `COCCN(CCCCc1ccc2c(n1)NCCC2)CC[C@H](Nc1nc(C)nc2ccccc12)C(=O)O` [compound 10], with less than 50 nM.
On to `COCCN(CCCCc1ccc2c(n1)NCCC2)CCC(Nc1ncnc2ncccc12)C(=O)O` (stereo not drawn) [compound 11], for which the IC50 was less than 50 nM.
Turning to `COCCN(CCCCc1ccc2c(n1)NCCC2)CC[C@H](Nc1nc(C)nc2cc(F)ccc12)C(=O)O` [compound 12], the IC50 is less than 50 nM.
For the compound `COCCN(CCCCc1ccc2c(n1)NCCC2)CC[C@H](Nc1nc(C(F)(F)F)nc2ccccc12)C(=O)O` [compound 14], the IC50 is less than 50 nM.
For `COCCN(CCCCc1ccc2c(n1)NCCC2)CC[C@H](Nc1ncnc2c(C(F)(F)F)cccc12)C(=O)O` [compound 15], the IC50 is less than 50 nM.
The figure for `COCCN(CCCCc1ccc2c(n1)NCCC2)CC[C@H](Nc1ncnc2cccc(F)c12)C(=O)O` [compound 18] is less than 50 nM; for `COCCN(CCCCc1ccc2c(n1)NCCC2)CC[C@H](Nc1ncnc2ccc(F)cc12)C(=O)O` [compound 19] it is less than 50 nM; for `COCCN(CCCCc1ccc2c(n1)NCCC2)CC[C@H](Nc1ncnc2c(F)cccc12)C(=O)O` [compound 20] it is less than 50 nM.
Then `COCCN(CCCCc1ccc2c(n1)NCCC2)CC[C@H](Nc1ncnc2cc(F)c(F)cc12)C(=O)O` [compound 21], with less than 50 nM; and `COCCN(CCCCc1ccc2c(n1)NCCC2)CC[C@H](Nc1cc(C(F)(F)F)nc(C)n1)C(=O)O` [compound 22], with less than 50 nM.
As for `COCCN(CCCCc1ccc2c(n1)NCCC2)CC[C@H](Nc1cc(C(F)F)ncn1)C(=O)O` [compound 23], the IC50 was less than 50 nM.
Consider `COCCN(CCCCc1ccc2c(n1)NCCC2)CC[C@H](Nc1ccnc(C(F)(F)F)n1)C(=O)O` [compound 24], for which the IC50 is less than 50 nM.
The figure for `CO[C@@H](C)CN(CCCCc1ccc2c(n1)NCCC2)CC[C@H](Nc1ncnc2ccccc12)C(=O)O` [compound 25] is less than 50 nM; for `COCCN(CCCCc1ccc2c(n1)NCCC2)CC[C@H](Nc1cc(C)nc(C(F)(F)F)n1)C(=O)O` [compound 26] it is less than 50 nM; for `CS(=O)(=O)CCN(CCCCc1ccc2c(n1)NCCC2)CC[C@H](Nc1ncnc2ccccc12)C(=O)O` [compound 27] it is less than 50 nM.
For `O=C(O)[C@H](CCN(CCCCc1ccc2c(n1)NCCC2)CCOc1ccccc1)Nc1ncnc2ccccc12` [compound 28], the IC50 is less than 50 nM.
Then `O=C(O)[C@H](CCN(CCCCc1ccc2c(n1)NCCC2)CCC(F)F)Nc1ncnc2ccccc12` [compound 29], with less than 50 nM.
Then `O=C(O)[C@H](CCN(CCCF)CCCCc1ccc2c(n1)NCCC2)Nc1ncnc2ccccc12` [compound 30], with less than 50 nM; and `COC[C@@H](F)CN(CCCCc1ccc2c(n1)NCCC2)CC[C@H](Nc1ncnc2ccccc12)C(=O)O` [compound 31], with less than 50 nM.
With `COC[C@@H](F)CN(CCCCc1ccc2c(n1)NCCC2)CC[C@H](Nc1nc(C)nc2cc(F)ccc12)C(=O)O` [compound 32], the IC50 is less than 50 nM.
Take `Cc1nc(N[C@@H](CCN(CCCCc2ccc3c(n2)NCCC3)CC2CC(F)(F)C2)C(=O)O)c2ccc(F)cc2n1` [compound 33]: the IC50 was less than 50 nM.
As to `COCCN(CCCCc1ccc2c(n1)NCCC2)CC[C@H](Nc1nccc2ccccc12)C(=O)O` [compound 34], the IC50 is greater than 1000 nM.
For `O=C(O)[C@H](CCN(CCCCc1ccc2c(n1)NCCC2)CCOC(F)F)Nc1ncnc2ccccc12` [compound 35], the IC50 was less than 50 nM.
The figure for `COCCN(CCCCc1ccc2c(n1)NCCC2)CC[C@H](Nc1ccnc2ccccc12)C(=O)O` [compound 36] is greater than 1000 nM; for `COCCN(CCCCc1ccc2c(n1)NCCC2)CC[C@H](Nc1ncnc2cc(Cl)ccc12)C(=O)O` [compound 37] it is 50 to 250 nM.
The figure for `COCCN(CCCCc1ccc2c(n1)NCCC2)CC[C@H](Nc1ncnc2c(Cl)cccc12)C(=O)O` [compound 38] is less than 50 nM; for `O=C(O)[C@H](CCN(CCCCc1ccc2c(n1)NCCC2)CCOCC(F)(F)F)Nc1ncnc2ccccc12` [compound 39] it is less than 50 nM.
The figure for `Cc1nc(N[C@@H](CCN(CCCCc2ccc3c(n2)NCCC3)CCOc2ccc(F)cc2)C(=O)O)c2ccc(F)cc2n1` [compound 40] is less than 50 nM; for `COc1ccc2c(N[C@@H](CCN(CCCF)CCCCc3ccc4c(n3)NCCC4)C(=O)O)ncnc2c1` [compound 41] it is less than 50 nM; for `Cc1nc(N[C@@H](CCN(CCCCc2ccc3c(n2)NCCC3)CCOC2CC2(F)F)C(=O)O)c2ccc(F)cc2n1` (stereo partly drawn) [compound 42] it is less than 50 nM.
For the compound `COc1cccc2c(N[C@@H](CCN(CCCF)CCCCc3ccc4c(n3)NCCC4)C(=O)O)ncnc12` [compound 43], the IC50 was less than 50 nM.
The figure for `COCCN(CCCCc1ccc2c(n1)NCCC2)CC[C@H](Nc1cc(-n2cccn2)ncn1)C(=O)O` [compound 44] is less than 50 nM; for `Cc1cc(C)n(CCN(CCCCc2ccc3c(n2)NCCC3)CC[C@H](Nc2ncnc3ccccc23)C(=O)O)n1` [compound 45] it is less than 50 nM.
Then `O=C(O)[C@H](CCN(CCCCc1ccc2c(n1)NCCC2)CCOc1cc(F)cc(F)c1)Nc1ncnc2ccccc12` [compound 47], with less than 50 nM.
The figure for `O=C(O)[C@H](CCN(CCCCc1ccc2c(n1)NCCC2)CCOc1ccccn1)Nc1ncnc2c(Cl)cccc12` [compound 48] is less than 50 nM.
`O=C(O)[C@H](CCN(CCCCc1ccc2c(n1)NCCC2)CCOc1ccccn1)Nc1ncnc2ccccc12` [compound 49]: the IC50 is less than 50 nM.
Take `O=C(O)[C@H](CCN(CCCCc1ccc2c(n1)NCCC2)CCOCC(F)F)Nc1ncnc2ccccc12` [compound 50]: the IC50 was less than 50 nM.
Then `O=C(O)[C@H](CCN(CCCCc1ccc2c(n1)NCCC2)CCOCC(F)(F)F)Nc1ncnc2cccnc12` [compound 51], with less than 50 nM; and `Cc1ncccc1OCCN(CCCCc1ccc2c(n1)NCCC2)CCC(Nc1ncnc2ccccc12)C(=O)O` (stereo not drawn) [compound 52], with less than 50 nM; and `Cc1nc(N[C@@H](CCN(CCCCc2ccc3c(n2)NCCC3)CCOc2cccnc2C)C(=O)O)c2ccc(F)cc2n1` [compound 53], with less than 50 nM.
Then `Cc1ncccc1OCCN(CCCCc1ccc2c(n1)NCCC2)CC[C@H](Nc1ncnc2cccnc12)C(=O)O` [compound 54], with less than 50 nM.
The figure for `CCOCCN(CCCCc1ccc2c(n1)NCCC2)CC[C@H](Nc1ncnc2ccccc12)C(=O)O` [compound 55] is less than 50 nM; for `Cc1ccc2c(N[C@@H](CCN(CCCCc3ccc4c(n3)NCCC4)CCOc3ccc(C)nc3)C(=O)O)nc(C)nc2c1` [compound 56] it is less than 50 nM.
In the case of `Cc1ccc(OCCN(CCCCc2ccc3c(n2)NCCC3)CC[C@H](Nc2ncnc3cccnc23)C(=O)O)cn1` [compound 57], the IC50 was less than 50 nM.
